Experimental data as given in PMC8667043, “First-in-Class Inhibitors of the Ribosomal Oxygenase MINA53” (Journal of Medicinal Chemistry, 2021).
Entries after “also recorded” stand apart in the source; their conditions may differ. Where two headings read alike, the source gives them in different places. Each block holds one compound with its values, some of them ahead of it.

Key:
NO66 = target: T1, NO66 (Homo sapiens, UniProt Q9H6W3); test: NO66 MS (RapidFire) hydroxylation inhibition assay, Rpl8 peptide; format: biochemical
T1 construct: histidine tag (TEV-cleavable) (cleaved yes); made in house; host or cells: E. coli BL21(DE3)-R3-pRARE2
T1 sequence (Q9H6W3 183-641): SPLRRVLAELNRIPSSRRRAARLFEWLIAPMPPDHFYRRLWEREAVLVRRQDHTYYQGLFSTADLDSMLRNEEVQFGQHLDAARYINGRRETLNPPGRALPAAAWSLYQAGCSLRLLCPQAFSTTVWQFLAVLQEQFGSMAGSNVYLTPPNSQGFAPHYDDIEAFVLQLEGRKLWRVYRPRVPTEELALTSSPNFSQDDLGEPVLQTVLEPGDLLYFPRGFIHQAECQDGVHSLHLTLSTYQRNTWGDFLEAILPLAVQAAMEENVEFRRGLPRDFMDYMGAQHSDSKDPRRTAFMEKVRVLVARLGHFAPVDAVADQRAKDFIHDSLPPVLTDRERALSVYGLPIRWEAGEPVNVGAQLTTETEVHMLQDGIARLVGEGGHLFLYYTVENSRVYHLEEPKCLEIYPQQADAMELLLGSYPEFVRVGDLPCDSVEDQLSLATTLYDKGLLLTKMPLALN

MINA53 = target: T2, MINA53 (Homo sapiens, UniProt Q8IUF8); test: MINA53 MS (RapidFire) hydroxylation inhibition assay, Rpl27a peptide; format: biochemical
T2 construct: MINA53 (Met1-Val464 and Ala26-Val464); histidine tag (TEV-cleavable) (cleaved yes); made in house; host or cells: E. coli BL21(DE3)-R3-pRARE2

HT-29 colon carcinoma = test: MTT cell viability assay; format: cell-based, human; conditions: 72, 96, 120 h, 10 to 100 μM, 10′ to a similar extent as 10
Experimental: (§1) Human commercially available established cancer cell lines HT-29 colon carcinoma (ATCC, HTB-38), U-87MG glioblastoma (ATCC, HTB-14), and MNK-45 gastric cancer (a gift from Dr. M. Broggini, Mario Negri Institute) were cultured in RPMI medium (Euroclone, Milan, IT) supplemented with 10% inactivated fetal bovine serum (HyClone, Thermo Scientific, South Logan, UT), 1% L-glutamine (Euroclone), and 100 μg/mL penicillin/streptomycin (Euroclone). HEK293T and HeLa cells were cultured in Dulbecco’s Modified Eagle Medium (DMEM, Gibco) supplemented with 10% (v/v) fetal bovine serum (FBS, Sigma) and 100 international units/mL (IU/mL) penicillin and 100 μg/mL streptomycin (Gibco). The cells were routinely tested for mycoplasma contamination and STR-authenticated.
(§2) Twenty-four hours following seeding, exponentially growing cells were treated with the different compounds at concentrations ranging from 10 to 100 μM for 72–120 h. Aqueous DMSO (0.5%, v/v) was used as a control (untreated). Cell viability was determined by the 3-(4,5-dimethylthiazol-2-yl)-2,5-diphenyltetrazolium bromide (MTT) colorimetric assay (Sigma-Aldrich). In summary, exponentially growing cancer cells were seeded in sextuplicate in 96-well culture plates (1.5 × 10^3 cells/well). After 24 h, the compounds were added at concentrations ranging from 10 to 100 μM. The effect of compounds on cancer cell proliferation was assessed by measuring the MTT dye absorbance of the cells as reported.[52] For combination treatments, the cells were treated with each of three compounds, either alone or in combination with doxorubicin. In particular, U-87MG cells were treated with doxorubicin alone or in combination with different MINA53 inhibitors for 24 h. The effect of different compounds or combinations (drug concentration ratio 1:20, doxorubicin: compound) on U-87MG cancer cell viability was assessed by measuring the MTT dye absorbance of cells. The interaction between doxorubicin (Doxo) and different compounds was evaluated based on the combination index (CI) using the CI equation through CalcuSyn software (Biosoft, Cambridge, U.K.). Synergism CI < 0.9, additivity 0.9 < CI < 1.1, antagonism CI > 1.1.

MNK-45 gastric carcinoma = test: MTT cell viability assay; format: cell-based, human; conditions: 72, 96, 120 h, 10 to 100 μM, 10′ to a similar extent as 10
Experimental: as §1, §2

U-87MG malignant glioma = test: MTT cell viability assay; format: cell-based, human; conditions: 72, 96, 120 h, 10 to 100 μM, 10′ to a similar extent as 10
Experimental: as §1, §2

PCAF = target: T3, PCAF (Homo sapiens, UniProt Q92831); test: HotSpot KAT assay; format: biochemical; conditions: means ± SD of three experiments, read-out: Residual Enzymatic Activity (%) PCAF
T3 construct: purchased Reaction Biology Corporation, Malvern, PA, USA
Experimental: (§3) The ef fects of 1-13 on th e histone lysine acetyltr a nsferas e activity (KAT ) o f p300 and PCAF were
(§4) determined using the HotSpot KAT assay ( Reaction Biology Corporation, Malvern, PA, USA)
(§5) according to the supplier’s procedure. In brief, recombinant form s of catal ytic domains of PCAF
(§6) NaCl, 0.1 mM EDTA, 1 mM DTT, 1 mM PMSF, 1% (v/v) DMSO) fo r 1 h at 30 °C in the presenc e
(§7) or absence of various concentrations of the inhibitors. Histone H3 acetyl ation was assessed by
(§8) liquid scintillation counting using a Tri-Carb 2800TR Liquid Scintillation Analyzer
(§9) (PerkinElmer). Assays at fixed con centration doses were performed in triplicate and analyzed
(§10) using Excel and GraphPad Prism 6.0 software (GraphPad Software Inc., San Diego, CA).

p300 = target: T4, p300 (Homo sapiens, UniProt Q09472); test: HotSpot KAT assay; format: biochemical; conditions: read-out: Residual Enzymatic Activity (%) p300
T4 construct: purchased Reaction Biology Corporation, Malvern, PA, USA
T4 sequence (Q09472 1284-1673): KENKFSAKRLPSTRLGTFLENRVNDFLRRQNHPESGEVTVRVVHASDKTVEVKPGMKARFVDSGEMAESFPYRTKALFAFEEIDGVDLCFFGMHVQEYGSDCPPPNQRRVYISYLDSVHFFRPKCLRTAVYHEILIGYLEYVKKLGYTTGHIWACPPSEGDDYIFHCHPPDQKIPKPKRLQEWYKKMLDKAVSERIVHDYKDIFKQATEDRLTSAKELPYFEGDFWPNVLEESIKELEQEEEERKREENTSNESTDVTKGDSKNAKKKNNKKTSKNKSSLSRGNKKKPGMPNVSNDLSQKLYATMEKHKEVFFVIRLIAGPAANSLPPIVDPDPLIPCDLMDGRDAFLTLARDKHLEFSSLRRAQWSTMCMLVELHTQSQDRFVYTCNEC
Experimental: as §3, §4, §5, §6, §7, §8, §9, §10

U-87MG cells = test: MTT cell viability, alone or in combination with doxorubicin; combination index; format: cell-based, human; conditions: 24 h
Experimental: as §2

[1] = NO66 (Ser183-Asn641), means ± 95% confidence, n = 3, read-out: IC50 value, NO66 (assay validation, Figure S7)
[2] = Table S12, read-out: NO66 IC50 (Table S12)
[3] = MINA53 (Met1-Val464), means ± 95% confidence, n = 3, read-out: IC50 value, MINA53 (assay validation, Figure S7)

T2 sequence (Q8IUF8 1-464 isoform Q8IUF8-4): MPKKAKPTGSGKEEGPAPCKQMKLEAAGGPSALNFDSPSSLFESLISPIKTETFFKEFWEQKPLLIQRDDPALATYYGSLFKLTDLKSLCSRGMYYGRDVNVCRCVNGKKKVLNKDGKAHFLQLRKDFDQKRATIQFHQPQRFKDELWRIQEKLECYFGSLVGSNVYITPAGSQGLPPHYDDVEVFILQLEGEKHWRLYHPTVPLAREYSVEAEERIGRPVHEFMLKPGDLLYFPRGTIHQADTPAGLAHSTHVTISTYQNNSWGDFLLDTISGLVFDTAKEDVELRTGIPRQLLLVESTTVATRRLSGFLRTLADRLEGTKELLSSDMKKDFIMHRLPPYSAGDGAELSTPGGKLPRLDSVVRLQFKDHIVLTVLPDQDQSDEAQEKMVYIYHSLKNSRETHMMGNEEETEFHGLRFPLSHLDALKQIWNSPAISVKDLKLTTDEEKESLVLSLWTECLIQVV
T3 sequence (Q92831 492-658): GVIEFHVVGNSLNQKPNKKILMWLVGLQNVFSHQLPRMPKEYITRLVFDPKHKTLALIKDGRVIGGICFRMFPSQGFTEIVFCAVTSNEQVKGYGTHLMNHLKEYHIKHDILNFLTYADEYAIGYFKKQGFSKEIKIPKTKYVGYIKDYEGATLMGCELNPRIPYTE

Structure (SMILES): O=C(O)c1ccnc(C(=O)O)c1 [2,4-PDCA, pyridine-2,4-dicarboxylate, reference compound]
- IC50 (NO66; [1]): 0.11 µM
- IC50 (NO66; [2]): 0.168 µM

Structure (SMILES): CCCCCCCCCCCCCCCc1cccc(O)c1C(=O)O [Anacardic Acid (AA), reference compound]
- remaining activity at 100 µM (PCAF): 4.7 ± 0.3%
- remaining activity at 100 µM (p300): 0.9 ± 0.01%

Structure (SMILES): O=C(O)CCNc1cc(N2CCc3ccccc3CC2)nc(-c2ccccn2)n1 [GSK-J1, reference compound]
- inhibition of NO66 at 100 μM (NO66; at 100 μM): did not show significant inhibition
- inhibition at 100 µM (NO66; read-out: inhibition of NO66 at 100 μM): 30%
- inhibition of MINA53 at 100 μM (MINA53; at 100 μM): did not show significant inhibition; also recorded: No inhibition

Structure (SMILES): O=C(O)CNC(=O)C(=O)O [NOG, N-oxalylglycine, reference compound]
- IC50 (NO66; [1]): 3.5 µM
- IC50 (MINA53; [3]): 1.8 µM

Structure (SMILES): COc1cccc2c1C(=O)c1c(O)c3c(c(O)c1C2=O)C[C@@](O)(C(=O)CO)C[C@@H]3O[C@H]1C[C@H](N)[C@H](O)[C@H](C)O1 [doxorubicin, reference compound]
- cell viability, single compound treatment (U-87MG cells): reduced cell viability in a dose-dependent manner

Now from value to compound, other results behind:

- IC50 (NO66; [2]): 20.1 µM
- IC50 (MINA53; Table S12, read-out: MINA53 IC50 (Table S12)): > 100 µM
Structure (SMILES): COC(=O)c1cnc(SCCCc2ccccc2)[nH]c1=O [10′, Methyl 2-((3-phenylpropyl)thio)-3,4-dihydro-4-oxopyrimidine-5-carboxylate]
- effect on cell viability, HT-29 (HT-29 colon carcinoma): reduced the cell viability
- effect on cell viability, MNK-45 (MNK-45 gastric carcinoma): reduced the cell viability
- effect on cell viability, U-87MG (U-87MG malignant glioma): reduced the cell viability

- IC50 (NO66; [1]): 38.5 µM
- IC50 (MINA53; [3]): 102 µM
Structure (SMILES): O=C(O)c1ccc(O)c2ncccc12 [IOX-1, reference compound]
